Inhibition data for 13 compounds are collected here from patent US6133279A, “Therapeutic agents for renal diseases and organ preservatives” (Chugai Seiyaku Kabushiki Kaisha, priority 1996, dated 2000).

Test [1] concerns porcine kidney-derived LLC-PK1 cells. The test is described as follows: Protective effect against oxidized LDL-induced injury of porcine kidney-derived LLC-PK1 cells (2). The class given is cell-based. Conditions: Sus scrofa, LLC-PK1, 6 h, mean ± standard deviation, read-out: Cytoprotection rate (%). The method, then:
For the purpose of evaluating in vitro cytoprotective effect of the compounds of the present invention, a cytoprotective study was performed using porcine kidney-derived LLC-PK1 cells (ATCC-CRL-13921) injured by oxidized low-density lipoprotein (oxidized LDL) in the same manner as in Test example 1 with the exception of some points.
Preparation of oxidized LDL and the conditions for cell culture and addition of test compounds were the same as in Test example 1. However, oxidized LDL was not diluted with saline and added to cells in an amount of 25 μl/well to a concentration of 91 μg/ml and the cells were cultured for 6 hours after addition of the oxidized LDL. Then, 150 μl/well of the culture medium were collected and measured for the lactate dehydrogenase (LDH) level (LD-L: SIGMA DIAGNOSTICS) having leaked in the medium.

For test [2], the system named is murine mesangial derived MES13 cells. The test is described as follows: Protective effect against oxidized LDL-induced injury of murine mesangial cells (in vitro). The class given is cell-based. The conditions noted are these: Mus musculus, MES13, 10 h, mean ± standard deviation, read-out: Cytoprotection rate (%). How it is done: For the purpose of evaluating in vitro cytoprotective effect of the compounds of the present invention on mesangial cells, a cytoprotective study was performed using murine mesangial derived MES13 cells (ATCC-CRL-1927) injured by oxidized LDL.
Oxidized LDL was prepared in the same manner as in Test example 1. Cell culture was carried out by plating 2.5×10^4 cells/250 μl/well on a 48-well plate using FBS-free medium (mixture of DME medium and F12 medium in a ratio of 3:1). Test compounds were dissolved or suspended in ethanol and added to the wells in an amount of 1.25 μl/well to a concentration of 1 or 10 μM in each well. After 16 hours or immediately after the addition of the compounds, oxidized LDL was added to cells in an amount of 25 μl/well to a concentration of 91 μg/ml and the cells were cultured for 10 hours after addition of the oxidized LDL. Then, 150 μl/well of the culture medium were collected and measured for the lactate dehydrogenase level (LDL: SIGMA DIAGNOSTICS) having leaked in the medium.
The magnitude of cytoprotective effect was expressed as the cytoprotection rate which was determined by calculating the data assuming that the magnitude in wells containing oxidized LDL is 0% and that the magnitude in containing saline is 100%.

Where [3] appears, read: compound added 16 hours before adding oxidized LDL.
Setting [4] is: compound added immediately before adding oxidized LDL.

Like-named read-outs stand apart in the source and are kept apart here.

As for `CC(C)(C)c1cc2c(c(C(C)(C)C)c1O)CC1(CCCCCCC1)O2` [Example 21, 4,6-Di-t-butyl-5-hydroxy-2,3-dihydrobenzofuran-2-spiro-1'-cyclooctane], the inhibition at 0.1 µM was determined as 15.6 ± 3.6% in test [1] (setting [3]) and 2.5 ± 2.5% in test [1] (setting [4]). For the same compound, the inhibition at 1 µM in test [1] (setting [3]) was 13.7 ± 13.4%; in test [1] (setting [4]), 6.1%; in test [2] (setting [3]), -7.5 ± 4.2%; in test [2] (setting [4]), -1.5 ± 1.2%. Also, the inhibition at 10 µM in test [1] (setting [3]) was 16 ± 2.6%; in test [1] (setting [4]), 14.4 ± 3.9%; in test [2] (setting [3]), -7 ± 3.4%; in test [2] (setting [4]), 11.9 ± 4.8%.

Take `CC1(CO)Cc2c(cc(C(C)(C)C)c(O)c2C(C)(C)C)S1` (stereo not shown) [Example 63, 4,6-Di-t-butyl-5-hydroxy-2-hydroxymethyl-2-methyl-2,3-dihydrobenzothiophene]: in test [1] (setting [3]), the inhibition at 0.1 µM is 4.2 ± 4.4%, the inhibition at 1 µM was found to be 95.3 ± 3.6% and the inhibition at 10 µM is 100.2 ± 0.4%. Further, in test [1] (setting [4]), the inhibition at 0.1 µM amounted to 5.9 ± 1.7%, the inhibition at 1 µM worked out at 97.3% and the inhibition at 10 µM is 101.1 ± 0.2%.

`CC(C)(C)c1cc2c(c(C(C)(C)C)c1O)CC1(CCSCC1)O2` [Example 68, 4,6-Di-t-butyl-5-hydroxy-2,3-dihydrobenzofuran-2-spiro-4'-tetrahydrothiopyran]: in test [1] (setting [3]), the inhibition at 0.1 µM came out at 12 ± 3.6%, the inhibition at 1 µM was 56.2 ± 4.6% and the inhibition at 10 µM was found to be 102 ± 1.5%. For the same compound, in test [1] (setting [4]), the inhibition at 0.1 µM was 6.3 ± 3.3%, the inhibition at 1 µM is 85.8% and the inhibition at 10 µM worked out at 100.6 ± 0.2%.

For the compound `CC(C)(C)c1cc2c(c(C(C)(C)C)c1O)CC1(CCOCC1)S2` [Example 69, 4,6-Di-t-butyl-5-hydroxy-2,3-dihydrobenzothiophene-2-spiro-4'-tetrahydropyran], the inhibition at 0.1 µM in test [1] (setting [3]) is 1 ± 4.7%; in test [1] (setting [4]), 4.5 ± 2.1%. Also, the inhibition at 1 µM was determined as 24.6 ± 12.8% in test [1] (setting [3]), 42.5% in test [1] (setting [4]), 4.2 ± 6.3% in test [2] (setting [3]) and 15.6 ± 4% in test [2] (setting [4]). Moreover, the inhibition at 10 µM was found to be 100.4 ± 0.5% in test [1] (setting [3]), 101.6 ± 0.7% in test [1] (setting [4]), 54.8 ± 9.3% in test [2] (setting [3]) and 89.8 ± 0.8% in test [2] (setting [4]).

In the case of `CC1(CN)Cc2c(cc(C(C)(C)C)c(O)c2C(C)(C)C)O1` (stereo not shown) [Example 70, 2-Aminomethyl-4,6-di-t-butyl-5-hydroxy-2-methyl-2,3-dihydrobenzofuran], in test [1] (setting [3]), the inhibition at 0.1 µM amounted to 17.5 ± 2.2%, the inhibition at 1 µM is 101 ± 0.7% and the inhibition at 10 µM came to 100.7 ± 0.8%. In addition, in test [1] (setting [4]), the inhibition at 0.1 µM stood at 9.9 ± 2.4%, the inhibition at 1 µM was 101% and the inhibition at 10 µM came to 101.3 ± 0.6%.

As to `CC1(CC#N)Cc2c(cc(C(C)(C)C)c(O)c2C(C)(C)C)O1` (stereo not shown) [Example 71, 4,6-Di-t-butyl-2-cyanomethyl-5-hydroxy-2-methyl-2,3-dihydrobenzofuran], in test [1] (setting [3]), the inhibition at 0.1 µM came to 10.4 ± 2.2%, the inhibition at 1 µM came to 26.9 ± 2.5% and the inhibition at 10 µM was 105.6 ± 0.6%. For the same compound, in test [1] (setting [4]), the inhibition at 0.1 µM stood at 4.3 ± 4.1%, the inhibition at 1 µM came to 80.2% and the inhibition at 10 µM stood at 107 ± 2%.

With `CC1(C(=O)O)Cc2c(cc(C(C)(C)C)c(O)c2C(C)(C)C)O1` (stereo not shown) [Example 72, 4,6-Di-t-butyl-5-hydroxy-2-methyl-2,3-dihydrobenzofuran-2-carboxylic acid], in test [1] (setting [3]), the inhibition at 0.1 µM came out at 2.3 ± 1.3%, the inhibition at 1 µM worked out at 14.8 ± 2% and the inhibition at 10 µM turned out to be 95.9 ± 1.3%. Also, in test [1] (setting [4]), the inhibition at 0.1 µM was found to be 2.7 ± 4.3%, the inhibition at 1 µM was found to be 14% and the inhibition at 10 µM is 95.2 ± 0.9%.

`COC(=O)C1(C)Cc2c(cc(C(C)(C)C)c(O)c2C(C)(C)C)O1` (stereo not shown) [Example 73, 4,6-Di-t-butyl-5-hydroxy-2-methoxycarbonyl-2-methyl-2,3-dihydrobenzofuran]: in test [1] (setting [3]), the inhibition at 0.1 µM was determined as 5.7 ± 1.4%, the inhibition at 1 µM turned out to be 78.9 ± 16.9% and the inhibition at 10 µM came to 99.7 ± 1.4%. Besides, in test [1] (setting [4]), the inhibition at 0.1 µM came to 4.8 ± 2.9%, the inhibition at 1 µM was 97.8% and the inhibition at 10 µM amounted to 99.4 ± 0.3%.

Turning to `CC1(C(=O)N2CCCC2)Cc2c(cc(C(C)(C)C)c(O)c2C(C)(C)C)O1` (stereo not shown) [Example 74, 1-(4,6-Di-t-butyl-5-hydroxy-2-methyl-2,3-dihydrobenzofuran-2-carbonyl)pyrrolidine], the inhibition at 0.1 µM in test [1] (setting [3]) amounted to 25.2 ± 3.3%; in test [1] (setting [4]) it was 10.1 ± 2.3%. Also, the inhibition at 1 µM in test [1] (setting [3]) was 54.8 ± 3.8%; in test [1] (setting [4]), 72.7%; in test [2] (setting [3]), -10.2 ± 1.4%; in test [2] (setting [4]), 18.7 ± 2.8%. The inhibition at 10 µM in test [1] (setting [3]) came to 103.6 ± 0.5%; in test [1] (setting [4]) it was 103.5 ± 0.6%; in test [2] (setting [3]) it was 24.5 ± 3.3%; in test [2] (setting [4]), 73 ± 0.3%.

On to `CCOC(=O)/C=C/C1(C)Cc2c(cc(C(C)(C)C)c(O)c2C(C)(C)C)O1` (stereo not shown) [Example 75, Ethyl 3-(4,6-di-t-butyl-5-hydroxy-2-methyl-2,3-dihydrobenzofuran-2-yl)-2-propenoate], for which the inhibition at 0.1 µM is 4.9 ± 2.7% in test [1] (setting [3]) and -4.9 ± 1.8% in test [1] (setting [4]). Further, the inhibition at 1 µM in test [1] (setting [3]) was 26.6 ± 7%; in test [1] (setting [4]), 51.8%; in test [2] (setting [3]), -8 ± 2%; in test [2] (setting [4]) it was 32.3 ± 2.4%. Moreover, the inhibition at 10 µM in test [1] (setting [3]) was 99.8 ± 0.9%; in test [1] (setting [4]), 98.7 ± 0.4%; in test [2] (setting [3]), 64.5 ± 6.4%; in test [2] (setting [4]) it was 79 ± 1.8%.

As for `CCOC(=O)CCC1(C)Cc2c(cc(C(C)(C)C)c(O)c2C(C)(C)C)O1` (stereo not shown) [Example 76, Ethyl 3-(4,6-di-t-butyl-5-hydroxy-2-methyl-2,3-dihydrobenzofuran-2-yl)propanoate], the results for the inhibition at 0.1 µM in test [1] (setting [3]) and in test [1] (setting [4]) were -10.4 ± 4.2% and -12.8 ± 1.2%, respectively. Moreover, the inhibition at 1 µM in test [1] (setting [3]) is -2.8 ± 3.5%; in test [1] (setting [4]), -7.6%; in test [2] (setting [3]), -4.8 ± 4.1%; in test [2] (setting [4]), 5.3 ± 3.9%. For the same compound, the inhibition at 10 µM in test [1] (setting [3]) was 13.8 ± 4.2%; in test [1] (setting [4]) it was 58.8 ± 9.5%; in test [2] (setting [3]) it was -17.2 ± 0.9%; in test [2] (setting [4]), 34.1 ± 2.5%.

As to `CC1(C=CCCCC(=O)O)Cc2c(cc(C(C)(C)C)c(O)c2C(C)(C)C)O1` (stereo not shown) [Example 77, 6-(4,6-Di-t-butyl-5-hydroxy-2-methyl-2,3-dihydrobenzofuran-2-yl)-5-hexenoicacid], the inhibition at 0.1 µM was determined as 12.3 ± 2.7% in test [1] (setting [3]) and 9.1 ± 1.8% in test [1] (setting [4]). Moreover, the inhibition at 1 µM in test [1] (setting [3]) stood at 6.1 ± 1.5%; in test [1] (setting [4]), 10.6%; in test [2] (setting [3]), 8.4 ± 0.4%; in test [2] (setting [4]) it was 8.7 ± 2.3%. Also, the inhibition at 10 µM was 35.8 ± 4% in test [1] (setting [3]), 48.5 ± 2.1% in test [1] (setting [4]), 2.5 ± 2.8% in test [2] (setting [3]) and 24.3 ± 1.7% in test [2] (setting [4]).

As to `CC1(CCCCCC(=O)O)Cc2c(cc(C(C)(C)C)c(O)c2C(C)(C)C)O1` (stereo not shown) [Example 78, 6-(4,6-Di-t-butyl-5-hydroxy-2-methyl-2,3-dihydrobenzofuran-2-yl)hexanoic acid], the figures for the inhibition at 0.1 µM in test [1] (setting [3]) and in test [1] (setting [4]) were -2.8 ± 0.9% and -11.6 ± 2.7%, respectively. The inhibition at 1 µM in test [1] (setting [3]) was -10.7 ± 8.9%; in test [1] (setting [4]), -6.7%; in test [2] (setting [3]), 13.5 ± 5.6%; in test [2] (setting [4]) it was 13.2 ± 1.4%. In addition, the inhibition at 10 µM was determined as 67.5 ± 6.1% in test [1] (setting [3]), 80.9 ± 1.5% in test [1] (setting [4]), 7.6 ± 2.1% in test [2] (setting [3]) and 51.3 ± 2.7% in test [2] (setting [4]).
